Assay results: US20220187282A1, “CARDIOMYOCYTE PROLIFERATION” (The Council of the Queensland Institute of Medical Research, priority 2019, published 2022)
Where two headings read alike, the source gives them in different places.

Legend:
Type in all cases: biochemical
kinases [1] = target: kinases (Homo sapiens, UniProt O94768); conditions: STK17B (DRAK2) FRET-Lantha SP; Test Conc(μM) 1
kinases [2] = target: kinases (Homo sapiens, UniProt P04629); conditions: NTRK1 (TRKA) FRET-Z-Lyte SP; Test Conc(μM):ATP Conc(μM) 1:400
kinases [3] = target: kinases (Homo sapiens, UniProt P07949); conditions: RET Hu Phos FRET-Z-Lyte SP; Test Conc(μM):ATP Conc(μM) 1:10
kinases [4] = target: kinases (Homo sapiens, UniProt P09769); conditions: FGR FRET-Z-Lyte SP; Test Conc(μM):ATP Conc(μM) 1:10
kinases [5] = target: kinases (Homo sapiens, UniProt P16234); conditions: PDGFRA *Mn* FRET-Z-Lyte SP; Test Conc(μM):ATP Conc(μM) 1:10
kinases [6] = target: kinases (Homo sapiens, UniProt P37023); conditions: ACVRL1 (ALK1) FRET-Lantha SP; Test Conc(μM) 1
kinases [7] = target: kinases (Homo sapiens, UniProt P41743); conditions: PRKCI (PKC iota) Z-Lyte SP; Test Conc(μM):ATP Conc(μM) 1:25
kinases [8] = target: kinases (Homo sapiens, UniProt P42336)
kinases [9] = target: kinases (Homo sapiens, UniProt P42338)
kinases [10] = target: kinases (Homo sapiens, UniProt P49759); conditions: CLK1 FRET-Z-Lyte SP; Test Conc(μM):ATP Conc(μM) 1:25
kinases [11] = target: kinases (Homo sapiens, UniProt P49760); conditions: CLK2 FRET-Z-Lyte SP; Test Conc(μM):ATP Conc(μM) 1:25
kinases [12] = target: kinases (Homo sapiens, UniProt P51451); conditions: BLK FRET-Z-Lyte SP; Test Conc(μM):ATP Conc(μM) 1:25
kinases [13] = target: kinases (Homo sapiens, UniProt P53778); conditions: MAPK12 (p38 gamma) Z-Lyte SP; Test Conc(μM):ATP Conc(μM) 1:10
kinases [14] = target: kinases (Homo sapiens, UniProt P78368); conditions: CSNK1G2 (CK1gamma2) Z-Lyte SP; Test Conc(μM):ATP Conc(μM) 1:5
kinases [15] = target: kinases (Homo sapiens, UniProt Q02750)
kinases [16] = target: kinases (Homo sapiens, UniProt Q13976); conditions: PRKG1 FRET-Z-Lyte SP; Test Conc(μM):ATP Conc(μM) 1:25
kinases [17] = target: kinases (Homo sapiens, UniProt Q16584); conditions: MAP3K11 (MLK3) FRET-Lantha SP; Test Conc(μM) 1
kinases [18] = target: kinases (Homo sapiens, UniProt Q16620); conditions: NTRK2 (TRKB) *Mn* Z-Lyte SP; Test Conc(μM):ATP Conc(μM) 1:25
kinases [19] = target: kinases (Homo sapiens, UniProt Q2M2I8); conditions: AAK1 FRET-Lantha SP; Test Conc(μM) 1
kinases [20] = target: kinases (Homo sapiens, UniProt Q8TCG2); conditions: PI4K2B *Mn* FRET-Adapta SP; Test Conc(μM):ATP Conc(μM) 1:10
kinases [21] = target: kinases (Homo sapiens, UniProt Q96GX5); conditions: MASTL FRET-Lantha SP; Test Conc(μM) 1
kinases [22] = target: kinases (Homo sapiens, UniProt Q96RG2); conditions: PASK FRET-Z-Lyte SP; Test Conc(μM):ATP Conc(μM) 1:50
kinases [23] = target: kinases (Homo sapiens, UniProt Q99759); conditions: MAP3K3 (MEKK3) FRET-Lantha SP; Test Conc(μM) 1
kinases [24] = target: kinases (Homo sapiens, UniProt Q9BXA7); conditions: STK22D (TSSK1) FRET-Z-Lyte SP; Test Conc(μM):ATP Conc(μM) 1:10
kinases [25] = target: kinases (Homo sapiens, UniProt Q9NRM7); conditions: LATS2 FRET-Lantha SP; Test Conc(μM) 1
kinases [26] = target: kinases (Homo sapiens, UniProt Q9UEW8); conditions: STK39 (STLK3) FRET-Lantha SP; Test Conc(μM) 1
kinases [27] = target: kinases (Homo sapiens, UniProt Q9UPZ9); conditions: ICK FRET-Lantha SP; Test Conc(μM) 1
kinases [28] = target: kinases (Homo sapiens, UniProt Q9UQM7); conditions: CAMK2A FRET-Z-Lyte SP; Test Conc(μM):ATP Conc(μM) 1:10
[29] = PIK3CA/PIK3R1 FRET-Adapta SP, Test Conc(μM):ATP Conc(μM) 1:25
[30] = PIK3CA/PIK3R3 FRET-Adapta SP, Test Conc(μM):ATP Conc(μM) 1:10
[31] = PIK3CB FRET-Adapta SP, Test Conc(μM):ATP Conc(μM) 1:150
[32] = PIK3CB/PIK3R2 FRET-Adapta SP, Test Conc(μM):ATP Conc(μM) 1:10
[33] = MAP2K1 (MEK1) FRET-Lantha SP, Test Conc(μM) 1
[34] = MAP2K1 (MEK1)Cascade Z-Lyte SP, Test Conc(μM):ATP Conc(μM) 1:100

Chain of kinases (Homo sapiens, UniProt P42338) (P42338 whole entry): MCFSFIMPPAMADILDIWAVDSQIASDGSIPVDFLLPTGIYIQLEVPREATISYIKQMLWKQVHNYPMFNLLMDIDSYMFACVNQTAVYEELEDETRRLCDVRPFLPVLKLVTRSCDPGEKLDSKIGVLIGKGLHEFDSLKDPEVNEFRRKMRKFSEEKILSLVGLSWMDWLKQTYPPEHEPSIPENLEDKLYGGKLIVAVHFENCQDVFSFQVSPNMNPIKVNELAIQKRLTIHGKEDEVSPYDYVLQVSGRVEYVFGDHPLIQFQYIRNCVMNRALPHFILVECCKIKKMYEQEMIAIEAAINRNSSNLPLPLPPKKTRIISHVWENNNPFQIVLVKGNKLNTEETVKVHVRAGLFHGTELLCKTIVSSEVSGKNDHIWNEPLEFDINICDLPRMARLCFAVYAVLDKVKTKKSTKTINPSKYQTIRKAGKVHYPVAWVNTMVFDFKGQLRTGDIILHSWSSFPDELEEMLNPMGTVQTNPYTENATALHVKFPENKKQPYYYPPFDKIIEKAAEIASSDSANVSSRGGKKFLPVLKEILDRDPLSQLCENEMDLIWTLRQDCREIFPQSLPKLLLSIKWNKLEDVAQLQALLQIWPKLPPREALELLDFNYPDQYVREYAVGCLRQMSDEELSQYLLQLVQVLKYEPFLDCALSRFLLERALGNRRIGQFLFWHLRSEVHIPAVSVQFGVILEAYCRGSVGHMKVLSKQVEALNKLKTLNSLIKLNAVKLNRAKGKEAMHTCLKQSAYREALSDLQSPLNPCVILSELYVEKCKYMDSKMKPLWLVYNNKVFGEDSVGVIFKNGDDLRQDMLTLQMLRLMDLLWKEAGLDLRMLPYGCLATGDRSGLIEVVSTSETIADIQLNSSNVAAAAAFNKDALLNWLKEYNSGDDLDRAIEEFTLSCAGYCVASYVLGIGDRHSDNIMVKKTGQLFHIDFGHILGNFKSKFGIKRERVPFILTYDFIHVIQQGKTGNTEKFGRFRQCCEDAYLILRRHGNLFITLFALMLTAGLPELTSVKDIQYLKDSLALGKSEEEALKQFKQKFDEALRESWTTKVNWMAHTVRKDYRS
Chain of kinases (Homo sapiens, UniProt P42336) (P42336 whole entry): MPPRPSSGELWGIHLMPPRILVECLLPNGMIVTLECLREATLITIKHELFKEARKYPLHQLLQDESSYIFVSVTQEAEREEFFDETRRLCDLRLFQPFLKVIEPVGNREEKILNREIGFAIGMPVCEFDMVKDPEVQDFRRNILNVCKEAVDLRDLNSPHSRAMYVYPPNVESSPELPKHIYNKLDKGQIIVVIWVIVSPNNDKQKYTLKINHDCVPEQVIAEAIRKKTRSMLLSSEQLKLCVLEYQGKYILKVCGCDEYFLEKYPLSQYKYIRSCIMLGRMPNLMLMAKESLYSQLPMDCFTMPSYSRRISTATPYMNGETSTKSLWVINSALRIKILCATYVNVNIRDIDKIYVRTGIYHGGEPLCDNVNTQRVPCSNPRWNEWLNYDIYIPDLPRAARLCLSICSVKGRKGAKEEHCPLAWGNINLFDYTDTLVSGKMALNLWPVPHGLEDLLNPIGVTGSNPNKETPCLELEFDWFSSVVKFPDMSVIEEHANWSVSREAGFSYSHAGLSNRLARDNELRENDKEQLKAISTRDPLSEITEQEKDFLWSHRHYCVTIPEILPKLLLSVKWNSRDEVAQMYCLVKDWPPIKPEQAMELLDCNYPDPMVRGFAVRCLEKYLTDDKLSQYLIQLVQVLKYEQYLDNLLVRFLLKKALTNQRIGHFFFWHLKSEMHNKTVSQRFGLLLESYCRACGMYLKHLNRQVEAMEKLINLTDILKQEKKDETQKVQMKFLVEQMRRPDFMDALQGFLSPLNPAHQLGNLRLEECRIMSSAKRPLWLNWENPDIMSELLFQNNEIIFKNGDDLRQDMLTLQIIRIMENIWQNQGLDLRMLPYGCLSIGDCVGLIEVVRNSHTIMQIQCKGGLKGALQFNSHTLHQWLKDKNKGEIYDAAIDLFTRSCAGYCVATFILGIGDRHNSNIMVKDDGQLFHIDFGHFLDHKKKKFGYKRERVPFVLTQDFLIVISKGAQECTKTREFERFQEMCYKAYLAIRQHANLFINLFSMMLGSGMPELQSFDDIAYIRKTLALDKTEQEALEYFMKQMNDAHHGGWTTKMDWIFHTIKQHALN
Chain of kinases (Homo sapiens, UniProt Q02750) (Q02750 whole entry): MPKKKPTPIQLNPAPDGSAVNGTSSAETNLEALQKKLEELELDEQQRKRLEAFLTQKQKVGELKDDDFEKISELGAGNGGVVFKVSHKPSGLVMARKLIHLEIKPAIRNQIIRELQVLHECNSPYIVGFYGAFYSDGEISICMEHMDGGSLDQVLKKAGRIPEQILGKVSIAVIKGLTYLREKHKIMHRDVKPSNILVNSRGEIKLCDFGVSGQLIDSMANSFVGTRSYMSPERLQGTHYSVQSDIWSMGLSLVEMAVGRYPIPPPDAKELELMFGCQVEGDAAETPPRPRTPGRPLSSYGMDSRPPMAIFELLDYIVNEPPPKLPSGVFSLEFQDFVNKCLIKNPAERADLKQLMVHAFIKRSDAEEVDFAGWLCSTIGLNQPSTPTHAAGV
Chain of kinases (Homo sapiens, UniProt Q2M2I8) (Q2M2I8 whole entry): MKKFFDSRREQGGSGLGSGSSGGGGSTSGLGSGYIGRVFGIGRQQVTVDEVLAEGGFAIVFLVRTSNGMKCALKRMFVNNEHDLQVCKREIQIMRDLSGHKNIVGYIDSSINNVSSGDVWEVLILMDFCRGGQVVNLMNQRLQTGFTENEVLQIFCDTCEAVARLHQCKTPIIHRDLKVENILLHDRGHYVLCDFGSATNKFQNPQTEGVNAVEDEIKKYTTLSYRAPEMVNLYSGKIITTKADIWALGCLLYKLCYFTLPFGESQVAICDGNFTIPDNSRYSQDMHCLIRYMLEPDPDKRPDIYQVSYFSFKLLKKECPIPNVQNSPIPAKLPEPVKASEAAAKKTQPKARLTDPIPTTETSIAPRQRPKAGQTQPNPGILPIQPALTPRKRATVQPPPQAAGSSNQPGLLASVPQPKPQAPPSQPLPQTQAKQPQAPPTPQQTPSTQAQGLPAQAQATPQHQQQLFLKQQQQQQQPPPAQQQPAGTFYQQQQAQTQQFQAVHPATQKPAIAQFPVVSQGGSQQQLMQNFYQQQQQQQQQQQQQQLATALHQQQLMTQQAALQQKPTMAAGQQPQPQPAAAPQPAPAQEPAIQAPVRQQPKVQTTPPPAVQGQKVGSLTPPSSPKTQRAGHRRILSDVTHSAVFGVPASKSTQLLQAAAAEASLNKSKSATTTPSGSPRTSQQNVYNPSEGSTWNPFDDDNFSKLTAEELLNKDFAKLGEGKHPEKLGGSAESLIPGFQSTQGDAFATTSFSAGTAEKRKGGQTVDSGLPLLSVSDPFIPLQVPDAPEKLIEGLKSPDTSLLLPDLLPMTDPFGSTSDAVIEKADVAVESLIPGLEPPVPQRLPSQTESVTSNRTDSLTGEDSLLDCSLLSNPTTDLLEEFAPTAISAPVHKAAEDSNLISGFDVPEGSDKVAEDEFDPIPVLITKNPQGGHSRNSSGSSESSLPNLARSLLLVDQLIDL
Chain of kinases (Homo sapiens, UniProt Q9NRM7) (Q9NRM7 whole entry): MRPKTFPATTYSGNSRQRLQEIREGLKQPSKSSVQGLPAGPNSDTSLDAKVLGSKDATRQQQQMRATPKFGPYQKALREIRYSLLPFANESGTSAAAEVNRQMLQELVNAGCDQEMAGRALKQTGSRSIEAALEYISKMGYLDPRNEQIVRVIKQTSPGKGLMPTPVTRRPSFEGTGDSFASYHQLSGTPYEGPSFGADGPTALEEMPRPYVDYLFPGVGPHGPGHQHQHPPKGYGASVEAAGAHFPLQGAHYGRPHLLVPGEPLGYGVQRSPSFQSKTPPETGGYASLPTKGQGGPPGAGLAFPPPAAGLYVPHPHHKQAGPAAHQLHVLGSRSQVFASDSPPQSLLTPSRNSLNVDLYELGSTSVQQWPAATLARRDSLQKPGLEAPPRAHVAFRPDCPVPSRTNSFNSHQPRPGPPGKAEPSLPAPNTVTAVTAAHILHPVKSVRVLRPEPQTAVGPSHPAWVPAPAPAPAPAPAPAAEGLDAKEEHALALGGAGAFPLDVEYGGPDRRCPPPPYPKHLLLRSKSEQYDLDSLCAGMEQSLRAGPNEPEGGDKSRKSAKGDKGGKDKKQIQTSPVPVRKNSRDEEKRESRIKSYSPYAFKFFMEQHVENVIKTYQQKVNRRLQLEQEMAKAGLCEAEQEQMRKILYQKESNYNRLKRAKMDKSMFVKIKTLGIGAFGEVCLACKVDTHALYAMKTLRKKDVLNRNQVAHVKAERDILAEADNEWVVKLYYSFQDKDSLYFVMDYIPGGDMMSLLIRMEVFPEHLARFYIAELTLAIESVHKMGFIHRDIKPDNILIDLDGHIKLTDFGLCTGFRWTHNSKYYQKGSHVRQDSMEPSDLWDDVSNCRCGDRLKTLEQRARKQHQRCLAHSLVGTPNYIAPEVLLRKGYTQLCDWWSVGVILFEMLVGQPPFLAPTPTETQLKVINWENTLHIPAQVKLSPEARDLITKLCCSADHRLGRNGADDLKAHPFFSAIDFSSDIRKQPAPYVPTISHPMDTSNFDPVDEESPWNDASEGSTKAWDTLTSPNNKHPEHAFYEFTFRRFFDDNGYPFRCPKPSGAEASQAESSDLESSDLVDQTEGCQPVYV
Chain of kinases (Homo sapiens, UniProt P37023) (P37023 22-503): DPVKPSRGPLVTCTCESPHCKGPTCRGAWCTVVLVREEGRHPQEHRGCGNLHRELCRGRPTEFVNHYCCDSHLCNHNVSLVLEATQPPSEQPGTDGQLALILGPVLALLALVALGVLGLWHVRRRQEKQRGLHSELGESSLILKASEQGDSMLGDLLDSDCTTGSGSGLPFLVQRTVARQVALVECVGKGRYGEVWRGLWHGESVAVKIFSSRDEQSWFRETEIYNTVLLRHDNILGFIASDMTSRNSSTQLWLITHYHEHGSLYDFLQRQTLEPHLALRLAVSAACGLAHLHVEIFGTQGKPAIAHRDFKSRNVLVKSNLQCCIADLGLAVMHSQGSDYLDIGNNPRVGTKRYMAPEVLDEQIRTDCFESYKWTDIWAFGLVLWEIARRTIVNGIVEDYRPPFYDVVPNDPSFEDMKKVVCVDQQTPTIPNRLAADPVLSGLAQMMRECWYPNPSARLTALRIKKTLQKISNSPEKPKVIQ

Compound	Mean Inhib (%) (kinases [1])	Mean Inhib (%) (kinases [2])	Mean Inhib (%) (kinases [3])	Mean Inhib (%) (kinases [4])	Mean Inhib (%) (kinases [5])	Mean Inhib (%) (kinases [6])	Mean Inhib (%) (kinases [7])	Mean Inhib (%) (kinases [8]; [29])	Mean Inhib (%) (kinases [8]; [30])	Mean Inhib (%) (kinases [9]; [31])	Mean Inhib (%) (kinases [9]; [32])	Mean Inhib (%) (kinases [10])	Mean Inhib (%) (kinases [11])	Mean Inhib (%) (kinases [12])	Mean Inhib (%) (kinases [13])	Mean Inhib (%) (kinases [14])	Mean Inhib (%) (kinases [15]; [33])	Mean Inhib (%) (kinases [15]; [34])	Mean Inhib (%) (kinases [16])	Mean Inhib (%) (kinases [17])	other results
Cc1ccc(NC(=O)c2ccnc(N3CCOCC3)c2)cc1Nc1ccnc(N2CC(C)OC(C)C2)n1 (centres unmarked) [compound 3]	4.7	30.7	22.8	9.4	2.4	7.2	−0.2	8.4	−3.0	−5.2	8.0	5.3	3.7	3.0	5.1	3.9	−3.2	20.0	5.7	−0.7	Mean Inhib (%) (kinases [18]): 1.9%; Mean Inhib (%) (kinases [19]): 5.8%; Mean Inhib (%) (kinases [20]): −15.8%; Mean Inhib (%) (kinases [21]): 2.3%; Mean Inhib (%) (kinases [22]): 13.7%; Mean Inhib (%) (kinases [23]): 5.2%; Mean Inhib (%) (kinases [24]): 18.8%; Mean Inhib (%) (kinases [25]): 0.5%; Mean Inhib (%) (kinases [26]): 6.0%; Mean Inhib (%) (kinases [27]): 0.3%; Mean Inhib (%) (kinases [28]): 1.0%
Cc1cc(Oc2ccnc(Nc3ccc(S(N)(=O)=O)cc3)c2)c(-c2ccccn2)nc1C [compound 65]	2.0	20.1	31.0	67.3	7.6	77.2	9.7	0.0	3.9	−2.3	−4.7	5.8	15.7	9.7	4.1	5.9	−0.5	17.3	0.3	−0.8	Mean Inhib (%) (kinases [18]): 0.7%; Mean Inhib (%) (kinases [19]): 2.4%; Mean Inhib (%) (kinases [20]): 1.8%; Mean Inhib (%) (kinases [21]): 13.5%; Mean Inhib (%) (kinases [22]): 3.8%; Mean Inhib (%) (kinases [23]): 14.8%; Mean Inhib (%) (kinases [24]): 12.2%; Mean Inhib (%) (kinases [25]): 4.9%; Mean Inhib (%) (kinases [26]): 5.1%; Mean Inhib (%) (kinases [27]): 6.0%; Mean Inhib (%) (kinases [28]): −3.3%
